Source: patent US8603532B2, “Nanostructures for drug delivery” (priority 2008, dated 2013)
Like-named read-outs stand apart in the source and are kept apart here.

Assays:
[1] = 1 h post administration, literature value; cited from earlier work
PC3 cells = test: In vitro cytotoxicity, MTT assay; assay type: cell-based, human; conditions: 72 h
Experimental: (§1) A series of in vitro cytotoxicity assays were performed to understand the anti-cancer properties of platinum(IV)-encapsulated nanoparticles, using human prostate cancer cells, and directly compared its efficacy to that of free cisplatin. The choice of the cancer cells was based on the presence of PSMA, as mentioned before. […] As shown in this figure, the Pt(IV)encapsulated polymeric nanoparticles containing PSMA aptamers on the surface (Pt—NP-Apt) were highly cytotoxic to the LNCaP cells, which up-regulate PSMA on the surface, giving an IC50 value of 0.03 μM. […] The PSMA^+ aptamer targeted Pt(IV)-encapsulated PLGA-b-PEG nanoparticles (Pt—Np-Apt) were 80 times more toxic in the PSMA LNCaP cells, indicating potential application of these nanoparticles in human prostate cancer.

PSMA+ LNCaP cells = test: In vitro cytotoxicity, MTT assay; assay type: cell-based, human; conditions: 72 h
Experimental: as §1

Male Sprague Dawley Rats = test: Maximum tolerated dose (MTD) study, intravenous; assay type: in vivo; conditions: for Death: 3 rats; for dose tolerated by the rats / MTD: i.v.; for dose tolerated by the rats: survival; for MTD: 14 days monitoring
From the text: The maximum tolerated dose (MTD) of chemotherapeutic agents may be a critical factor for achieving optimal therapeutic benefit. The effectiveness of chemotherapeutic agents is generally proportional to the dose of the agents at their targets; however, the dose may be limited by systemic toxicity. In this non-limiting example, the therapeutic effectiveness of a platinum(IV) prodrug was attempted to be increased by increasing the maximum tolerated dose (MTD) of the prodrug by using a polymeric nanoparticle drug delivery systems. Various doses of cisplatin, Pt(IV)-prodrug (compound 1 from Example 1), Pt—NP (from Example 1), or PLGA-PEG-NP (control, nanoparticles not comprising platinum complexes) were injected intravenously and the MTD was estimated based on the threshold at which all […] survived.
Male Sprague Dawley Rats were used for MTD determination with intravenous administration. All rats treated with plain nanoparticles tolerated these doses. In the Pt—NP group, rats receiving doses up to 40 mg/kg tolerated the dose, but two of three in the 50 and 60-mg/kg groups died. Only the dose of 20 mg/kg free cisplatin or Pt(IV)-prodrug were tolerated by the rats. To further define the MTD, overall toxicity was monitored for 14 days. As a sign of toxicity, the body weights of rats were measured.

[2] = Cyclic voltammetry, Pt(IV)/Pt(II) reduction potential; assay type: physicochemical
Experimental: The identity of the platinum species released from the polymeric nanoparticles was determined by ESI-MS. […] The redox potentials were also investigated for reduction of compound 1 at various pH values. […] NPs before reaching the nuclear DNA.

[3] = Blood circulation and excretion studies; assay type: in vivo; conditions: rat, 2 mg/kg i.v., 1 h post administration
Experimental: Male Sprague Dawley rats were used in this study. Separate groups of animals received i.v. injections of Pt—NP (2 mg/kg) or Pt(IV)-prodrug (2 mg/kg) and were placed in metabolism cages. Blood was collected at predetermined time points in heparinized tubes. Whole organs or representative tissue samples were removed and weighed where necessary. Urine was collected for 24 h. Plasma was obtained from the blood samples by […]. Samples were analyzed for their platinum content using a Perkin Elmer Flameless Atomic Absorption Spectrophotometer.

For “[cis-Pt(NH3)2Cl2] [cisplatin, reference compound]”, the “platinum dose remaining in the systemic circulation” value [1] is listed as 1.5%, the IC50 (PC3 cells) is listed as 180 nM and the IC50 (PSMA+ LNCaP cells) is listed as 2400 nM. It also gave a Death (Male Sprague Dawley Rats; 5 mg/kg i.v.) of 0, a Death (Male Sprague Dawley Rats; 10 mg/kg i.v.) of 0 and a Death (Male Sprague Dawley Rats; 20 mg/kg i.v.) of 0. For the same substance, the Death (Male Sprague Dawley Rats; 40 mg/kg i.v.) was 3, the “dose tolerated by the rats” value (Male Sprague Dawley Rats) was 20 mg/kg and the MTD (Male Sprague Dawley Rats; rats) was 20 mg/kg.

For “c,c,t-[Pt(NH3)2(O2CCH2CH2CH2CH2CH2)2Cl2] [compound 1]”, the Death (Male Sprague Dawley Rats; 5 mg/kg i.v.) was 0, the Death (Male Sprague Dawley Rats; 10 mg/kg i.v.) was 0 and the Death (Male Sprague Dawley Rats; 20 mg/kg i.v.) was 0. The Death (Male Sprague Dawley Rats; 40 mg/kg i.v.) was 2, the “dose tolerated by the rats” value (Male Sprague Dawley Rats) was 20 mg/kg and the MTD (Male Sprague Dawley Rats; rats) was 20 mg/kg. The body weight change (Male Sprague Dawley Rats; rats, up to 20 mg/kg, 14 days) was “did not show any weight loss”, the “Pt(IV)/Pt(II) couple, irreversible cyclic voltammetric response” value (“Pt(IV)/Pt(II) couple” for short) ([2]; 1:4 DMF-sodium phosphate buffer, pH 6.0) was roughly −0.243 V vs. NHE and the “Pt(IV)/Pt(II) couple” value ([2]; 1:4 DMF-sodium phosphate buffer, pH 7.4) was roughly −0.233 V vs. NHE. For the same substance, the “Pt(IV)/Pt(II) couple” value ([2]; MeCN-0.1 M TBAPF6) was roughly −0.805 V vs. NHE and the “platinum dose remaining in the systemic circulation” value [3] was 15.6%.
